Tests used:
[1] = tested on: HTLA cells not expressing a Tango receptor; assay: Tango negative control, cells transfected with pEYFP-N1; type: cell-based, human
[2] = molecular target: human V2 Tango receptor (Homo sapiens, UniProt P30518); assay: Tango control, human V2 Tango receptor; type: cell-based; conditions: data not shown

Structure (SMILES)	activity on HTLA cells not expressing a Tango receptor [1]	effect on HTLA cells expressing the human V2 Tango receptor [2]
CCCN1CCC[C@@H]2Cc3n[nH]cc3C[C@H]21 [Quinpirole]	inactive	no effect
CN(C)CCCN1c2ccccc2Sc2ccc(Cl)cc21 [Chlorpromazine]	inactive	no effect
